From patent publication US20160090556A1, “PRODUCTS COMPRISING MALODOR REDUCTION MATERIALS” (The Procter & Gamble Company, priority 2014, published 2016)
Where two headings read alike, the source gives them in different places.

Experiment: Liquid dish neat product liquid-air partition coefficient
Format: physicochemical
[1] = class code letter within Comment Code

Row | Compound | Log of liquid dish neat product liquid-air partition coefficient (Comment Code K/L) | Log of liquid dish neat product liquid-air partition coefficient (Comment Code K/L) [1] | also measured
1 | CC(=O)OC12CCCC(C)(CCC3C1CC3(C)C)C2 (stereo not drawn) [Material 573] | K (Log of liquid dish neat product liquid-air partition coefficient greater than or equal to −7) |  | Comment Code: Log of liquid dish neat product liquid-air partition coefficient (code letters K, L): K (Log of liquid dish neat product liquid-air partition coefficient greater than or equal to −7)
2 | CCC(=O)C=CC1C(C)=CCCC1(C)C (stereo not drawn) [Material 700] | K (Log of liquid dish neat product liquid-air partition coefficient greater than or equal to −7) |  | 
3 | CC1=CCC(O)(C(C)C)CC1 (stereo not drawn) [Material 800] | K (Log of liquid dish neat product liquid-air partition coefficient greater than or equal to −7) |  | 
4 | c1ccc(Cc2ccccc2)cc1 [Material 429] |  | K (Log of liquid dish neat product liquid-air partition coefficient greater than or equal to −7) | 
5 | C[C@H]1[C@@H]2C[C@H](C[C@@]13C=CC(=O)CC3)C2(C)C [Material 1143] |  |  | Comment Code: Log of liquid dish neat product liquid-air partition coefficient (code letters K, L): K (Log of liquid dish neat product liquid-air partition coefficient greater than or equal to −7); Comment Code: Log of liquid dish neat product liquid-air partition coefficient (codes K/L of the Comment Code, Table 1): K (Log of liquid dish neat product liquid-air partition coefficient greater than or equal to −7)
6 | CCCCCCCCCCCCCC(=O)OC(C)C [Material 196] |  | K (Log of liquid dish neat product liquid-air partition coefficient greater than or equal to −7) | 
7 | O=C1CCC=CCCCCCCCCCC1 [Material 372] |  | K (Log of liquid dish neat product liquid-air partition coefficient greater than or equal to −7) | 
8 | C=C(C)C1CC=C(CO)CC1 (stereo not drawn) [Material 948] | K (Log of liquid dish neat product liquid-air partition coefficient greater than or equal to −7) |  | 
9 | CCCCCC=CC=CC(=O)OCC [Material 951] | K (Log of liquid dish neat product liquid-air partition coefficient greater than or equal to −7) |  | 
10 | CCCCCCCC(=O)OCCCCCC [Material 263] |  | K (Log of liquid dish neat product liquid-air partition coefficient greater than or equal to −7) | 
11 | CC(C)c1cccc(C(C)CC=O)c1 (stereo not drawn) [Material 914] | K (Log of liquid dish neat product liquid-air partition coefficient greater than or equal to −7) |  | 
12 | CCOC(C)OC1CCCCCCCCCCC1 (stereo not drawn) [Material 363] |  | K (Log of liquid dish neat product liquid-air partition coefficient greater than or equal to −7) | 
13 | CCCC(=O)OC(C)(C)Cc1ccccc1 [Material 432] |  | K (Log of liquid dish neat product liquid-air partition coefficient greater than or equal to −7) | 
14 | CC(CO)CCCc1ccccc1 (stereo not drawn) [Material 1012] | K (Log of liquid dish neat product liquid-air partition coefficient greater than or equal to −7) |  | 
15 | CCCCCCCCCC/C=C\C#N [Material 11] |  | K (Log of liquid dish neat product liquid-air partition coefficient greater than or equal to −7) | 
16 | CC1CC(C)(c2ccccc2)CO1 (stereo not drawn) [Material 1006] | K (Log of liquid dish neat product liquid-air partition coefficient greater than or equal to −7) |  | 
17 | CCCCCCC1C(=O)CCC1C(=O)OC (stereo not drawn) [Material 450] |  | K (Log of liquid dish neat product liquid-air partition coefficient greater than or equal to −7) | 

Row | Compound | Log of liquid dish neat product liquid-air partition coefficient (Comment Code K/L) | Log of liquid dish neat product liquid-air partition coefficient (Comment Code K/L) [1] | also measured
18 | CC1=CCCC2(C)CCC(C(C)(C)O)CC12 (stereo not drawn) [Material 712] | K (Log of liquid dish neat product liquid-air partition coefficient greater than or equal to −7) |  | Comment Code: Log of liquid dish neat product liquid-air partition coefficient (code letters K, L): K (Log of liquid dish neat product liquid-air partition coefficient greater than or equal to −7)
19 | C=C1C=CC(C(C)CCC=C(C)C)CC1 (stereo not drawn) [Material 614] | K (Log of liquid dish neat product liquid-air partition coefficient greater than or equal to −7) |  | 
20 | CCCCCCCCCCCCCC#N [Material 38] |  | K (Log of liquid dish neat product liquid-air partition coefficient greater than or equal to −7) | 
21 | CC(C)C1OC2(CCCC2)OCC1(C)C (stereo not drawn) [Material 25] |  | K (Log of liquid dish neat product liquid-air partition coefficient greater than or equal to −7) | 
22 | C/C=C/c1ccc(O)c(OC)c1 [Material 1084] |  |  | Comment Code: Log of liquid dish neat product liquid-air partition coefficient (code letters K, L): K (Log of liquid dish neat product liquid-air partition coefficient greater than or equal to −7)
23 | CCC(C)c1nccnc1OC (stereo not drawn) [Material 845] |  |  | Comment Code: Log of liquid dish neat product liquid-air partition coefficient (code letters K, L): K (Log of liquid dish neat product liquid-air partition coefficient greater than or equal to −7)
24 | C=CC1(C)CCC(C(C)C)=CC1C(=C)C (stereo not drawn) [Material 461] |  | K (Log of liquid dish neat product liquid-air partition coefficient greater than or equal to −7) | 
25 | CC(C)=C1CCC(C)(O)CC1 (stereo not drawn) [Material 318] |  | K (Log of liquid dish neat product liquid-air partition coefficient greater than or equal to −7) | 
26 | CCC(=O)OC1CC2C3C=CCC3C1C2(C)C (stereo not drawn) [Material 343] |  | K (Log of liquid dish neat product liquid-air partition coefficient greater than or equal to −7) | Comment Code: Log of liquid dish neat product liquid-air partition coefficient (code letters K, L): K (Log of liquid dish neat product liquid-air partition coefficient greater than or equal to −7)
27 | C=C(C)C1CC=C(C)C(OC(C)=O)C1 (stereo not drawn) [Material 577] | K (Log of liquid dish neat product liquid-air partition coefficient greater than or equal to −7) |  | 
28 | CC1=CCC(C)C(C)C12C=CC(C)O2 (stereo not drawn) [Material 192] |  | K (Log of liquid dish neat product liquid-air partition coefficient greater than or equal to −7) | 
29 | CC(C)C(=O)OC1CC2CC1C1C=CCC21 (stereo not drawn) [Material 487] |  | K (Log of liquid dish neat product liquid-air partition coefficient greater than or equal to −7) | Comment Code: Log of liquid dish neat product liquid-air partition coefficient (code letters K, L): K (Log of liquid dish neat product liquid-air partition coefficient greater than or equal to −7)
30 | CC(C)=CCCC(C)c1ccc(C)cc1 (stereo not drawn) [Material 713] | K (Log of liquid dish neat product liquid-air partition coefficient greater than or equal to −7) |  | 
31 | C=CCc1ccc(O)c(OC)c1 [Material 375] |  | K (Log of liquid dish neat product liquid-air partition coefficient greater than or equal to −7) | 
32 | C=C[C@](C)(O)CCC=C(C)C [Material 888] |  |  | Comment Code: Log of liquid dish neat product liquid-air partition coefficient (code letters K, L): K (Log of liquid dish neat product liquid-air partition coefficient greater than or equal to −7)
33 | N#CC=Cc1ccccc1 [Material 549] |  |  | Comment Code: Log of liquid dish neat product liquid-air partition coefficient (code letters K, L): K (Log of liquid dish neat product liquid-air partition coefficient greater than or equal to −7)
34 | CCc1ccc(CC(C)(C)C#N)cc1 [Material 361] |  | K (Log of liquid dish neat product liquid-air partition coefficient greater than or equal to −7) | 
